Blank lines part the entries; values can stand above or below the compound they belong to. Numbered stars: 1 amine (or outer) side, 2 acyl side, 3 side chain; on linkers, the order of the positions; unused ones are H or OH. Square brackets hold non-standard residues; d marks the D form. Peptide text beside a SMILES is read from it. X1 = CC(=O)N[C@H]1[C@H](OC[C@H]2O[C@H](O[C@H](C)[C@H](N[*:1])C(=O)[*:2])[C@H](NC(C)=O)[C@@H](O[C@@H]3O[C@H](CO)[C@H](O)[C@H](O[C@]4(C(=O)O)C[C@H](O)[C@@H](NC(C)=O)[C@H]([C@H](O)[C@H](O)CO)O4)[C@H]3O)[C@H]2O)O[C@H](CO)[C@@H](O[C@@H]2O[C@H](CO)[C@H](O)[C@H](O[C@]3(C(=O)O)C[C@H](O)[C@@H](NC(C)=O)[C@H]([C@H](O)[C@H](O)CO)O3)[C@H]2O)[C@@H]1O[C@@H]1O[C@@H](C)[C@@H](O)[C@@H](O)[C@@H]1O; sY = N[C@@H](Cc1ccc(OS(=O)(=O)O)cc1)C(=O)O; pGlu = O=C1CC[C@@H](C(=O)O)N1
How the values were obtained:
[1] = tested on: E-selectin relative P-selectin; conditions: Poppe et al., 1997; cited from earlier work
[2] = biological target: T1, P-LE (lectin/EGF domains of P-selectin) (Homo sapiens, UniProt P16109); experiment: BIAcore surface plasmon resonance: solution-phase P-LE binding to immobilized sPSGL and PSGL-1 19ek peptides; conditions: immobilized ligand
T1 construct: The lectin-EGF (LE) domains (153 amino acids) of P-selectin (P-LE) and E-selectin (E-LE); IgG1 Fc (CH2-CH3 region) (C, cleaved yes); made in house; host or cells: CHO cells
T1 sequence (P16109 42-198): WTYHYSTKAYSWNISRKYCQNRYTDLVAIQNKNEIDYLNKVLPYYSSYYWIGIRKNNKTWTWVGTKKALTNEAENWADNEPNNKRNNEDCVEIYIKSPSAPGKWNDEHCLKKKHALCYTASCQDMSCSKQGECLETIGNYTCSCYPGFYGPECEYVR
Source text: FIGS. 1C-1-1C-6: Binding affinity determinations of solution-phase P-LE reacted with immobilized sPSGL and purified 19ek peptides by BIAcore analysis. First row, left-to-right: sPSGL (FIGS. 1C-1), SGP-3 (FIGS. 1C-2) and SGP-2 (FIGS. 1C-3). Second row, left-to-right: SGP-1 (FIGS. 1C-4), GP-1 (FIGS. 1C-5) and SP-1 (FIGS. 1C-6). P-LE at the indicated concentrations was reacted with immobilized ligands (to determine the total binding signal) and against control […] containing no ligand (to determine non-specific binding). The equilibrium responses (Req) at each concentration of P-LE are shown. At each P-LE concentration tested, specific binding signals (squares) were determined by subtracting non-specific responses (triangles) from total binding signals (diamonds). KDs and standard deviations (shown) were determined by line-fitting of specific binding curves using BIAevaluation software (BIAcore) and are the products of three-to-ten separate experiments. KD determinations using line-fitting agreed well with values determined by linear regression analysis of Scatchard plots (not shown).
P-LE/19ek Peptide Binding Studies. […] Glycosylated P-LE and E-LE, quantitated by experimentally determined extinction coefficients (280 nm), were injected over the19ek peptide, sPSGL and control surfaces at 40 μL/min. […]

[3] = biological target: T1, P-LE (lectin/EGF domains of P-selectin); experiment: BIAcore: inhibition of P-LE binding to immobilized sPSGL and SGP-3 by co-injected solution-phase peptide; conditions: P-LE at 800 nM; solution-phase inhibitor at 20 μM
Description: FIGS. 1B-1 and 1B-2: Representative BIAcore sensorgrams of solution-phase P-LE binding to immobilized PSGL-1 constructs. P-LE (at 800 nM concentration) was injected over sPSGL (FIGS. 1B-1) and SGP-3 (FIGS. 1B-2). […] P-LE binding to sPSGL and SGP-3 was inhibited by co-injection with solution-phase SGP-3 (dotted line) but not by a synthetic peptide containing no tyrosine sulfation or glycosylation (dashed line), both at 20 μM concentration. All curves reflect specific binding produced by subtracting non-specific binding from total binding.
P-LE/19ek Peptide Binding Studies. Surface plasmon resonance was performed on BIAcore 2000 and 3000 instruments at 25° C. using streptavidin-coated sensor chips (BIAcore) and HBS-P buffer (BIAcore; 10 mM HEPES (pH 7.4), 150 mM NaCl, and 0.005% polysorbate 20 (v/v)) adjusted to 1 mM each CaCl2 and MgCl2. The 19ek peptides and sPSGL, a fucosyltransferase-VII modified version of the entire dimeric extracellular domain of PSGL-1 (Croce et al., 1998), were biotinylated at Lys residues with Sulfo-NHS-LC-Biotin (Pierce). Following biotinylation, sPSGL was reacted with immobilized P-selectin in order to isolate functional material (Sako et al., 1995). […] Glycosylated P-LE and E-LE, quantitated by experimentally determined extinction coefficients (280 nm), were injected over the19ek peptide, sPSGL and control surfaces at 40 μL/min. […]

Compound: sialyl Lewis^X (SLe^X, NeuNAc2,3Gal1,4[Fuc1,3] GlcNAc) tetrasaccharide
- higher SLe^X binding affinity for E-selectin relative P-selectin [1]: approximately 10 fold

- binding affinity of P-LE in words, compared with SGP-3 or the modified species [2]: essentially identical affinity
Compound: sPSGL: Fucosyltransferase-VII modified version of the entire dimeric extracellular domain of PSGL-1

Compound: CSCC[C@H](NC(=O)[C@H](CCSC)NC(=O)[C@@H]1CCCN1C(=O)[C@H](CCCNC(=N)N)NC(=O)[C@@H]1CCCN1C(=O)[C@@H]1CCCN1C(=O)[C@H](CCC(=O)O)NC(=O)[C@@H](NC(=O)[C@H](CCC(=O)O)NC(=O)[C@@H]1CCCN1C(=O)[C@H](CC(C)C)NC(=O)[C@H](Cc1ccccc1)NC(=O)[C@H](CC(=O)O)NC(=O)[C@H](Cc1ccc(OS(=O)(=O)O)cc1)NC(=O)[C@H](CC(=O)O)NC(=O)[C@H](CC(C)C)NC(=O)[C@H](Cc1ccc(OS(=O)(=O)O)cc1)NC(=O)[C@H](CCC(=O)O)NC(=O)[C@H](Cc1ccc(OS(=O)(=O)O)cc1)NC(=O)[C@H](CCC(=O)O)NC(=O)[C@@H](NC(=O)[C@H](C)NC(=O)[C@@H]1CCC(=O)N1)[C@@H](C)O)[C@@H](C)O[C@H]1O[C@H](CO[C@@H]2O[C@H](CO)[C@@H](O[C@@H]3O[C@H](CO)[C@H](O)[C@H](O[C@]4(C(=O)O)C[C@H](O)[C@@H](NC(C)=O)[C@H]([C@H](O)[C@H](O)CO)O4)[C@H]3O)[C@H](O[C@@H]3O[C@@H](C)[C@@H](O)[C@@H](O)[C@@H]3O)[C@H]2NC(C)=O)[C@H](O)[C@H](O[C@@H]2O[C@H](CO)[C@H](O)[C@H](O[C@]3(C(=O)O)C[C@H](O)[C@@H](NC(C)=O)[C@H]([C@H](O)[C@H](O)CO)O3)[C@H]2O)[C@H]1NC(C)=O)C(=O)N[C@@H](CC(=O)O)C(=O)N[C@@H](CC(=O)O)C(=O)N[C@@H](CC(=O)O)C(=O)N[C@@H](CC(=O)O)C(=O)N[C@@H](CCCCN)C(=O)O [SGP-3] ([pGlu]ATE[sY]E[sY]LD[sY]DFLPE[X1]EPPRPMMDDDDK-OH; C-terminus assumed)
- inhibition of P-LE binding to immobilized sPSGL and SGP-3 by co-injection [3]: inhibited

From patent US20040096894A1, “Crystal structures of P- selectin, P- and E-selectin complexes, and uses thereof” (priority 2000, published 2004)
